According to US20210347823A1, “METHODS OF PHYSICOCHEMICAL-GUIDED PEPTIDE DESIGN AND NOVEL PEPTIDES DERIVED THEREFROM” (Massachusetts Institute of Technology, priority 2018, published 2021):

How the values were obtained:
[1] = test system: Escherichia coli strain BL21; test: MIC assay (broth microdilution) against E. coli BL21; assay type: cell-based; details: E. coli BL21, 24 h, 37° C.
Description: (§1) FIGS. 2A-2E. Design, physicochemical features and activity of Pol-CP—NH2 and Ala-scan analogs. FIG. 2A. Theoretical physicochemical properties of interest of the wild type and Ala-scan analogs, where H denotes hydrophobicity, μH is the hydrophobic moment, q represents the net charge and P/N is the ratio of polar/non-polar residues in the sequence. Top to bottom, left to right the sequences correspond to SEQ ID NOs: 1-13. FIG. 2B. Schematic of the in vitro biological activity experimental design. Briefly, 10^4 bacterial cells and serially diluted peptides (0-128 μmol L^−1) were added to a 96-well plate and incubated at 37° C. One day after the exposure, the solution in each well was measured in a microplate reader (600 nm) to check inhibition of bacteria compared to the untreated controls and presented as heat maps of antimicrobial activities (μmol L^−1) against four bacteria strains: E. coli strain BL21, S. aureus strain ATCC12600 and P. aeruginosa strains PA01, and PA14. Assays were performed in triplicates. FIG. 2C. Graph correlating MIC (μmol L^−1) averages vs H and (FIG. 2D) MIC (μmol L^−1) averages vs μH, where dots […] the dashed line show peptides with higher activity compared to the wild type, in which one can observe ranges of optimal activity in determined intervals of H and μH values. FIG. 2E. […]

[2] = test system: P. aeruginosa strain PA01; test: MIC assay (broth microdilution) against P. aeruginosa PA01; assay type: cell-based, Pseudomonas aeruginosa; details: P. aeruginosa PA01, 24 h, 37° C.
Description: as §1

[3] = Stability assay in fetal bovine serum; assay type: in vitro ADME; details: fetal bovine serum, 6 h
Method: FIGS. 6A-6B. Hemolysis and resistance to protease-mediated degradation of engineered peptides. FIG. 6A. Schematic of experimental design and hemolytic assay results of Pol-CP—NH2 and derivatives, where hemolytic activity was evaluated by incubating the peptides (0.1-100 μmol L^−1) with human red blood cells in PBS at room temperature for 1 h. Experiments were performed in triplicate, (*p<0.05). FIG. 6B. Resistance to degradation of Pol-CP—NH2 and analogs exposed to fetal bovine serum (FBS) proteases for 6 h. Experiments were done in triplicate.
Stability Assays. The stability assay was performed with GIBCO fetal bovine serum diluted to 25% in water. 20 ? L of a 10 mg mL^−1 peptide solution was added to 1 mL 25% serum solution and kept at 37° C. The experiments were made in triplicate and 100 ? L aliquots were taken at 0, 0.5, 1, 2, 4 and 6 h. 10 ? L of TFA was added to the aliquots and the new solution was kept at 5° C. for 10 min, after that it was centrifuged at 14,000 rpm for 15 min, according to Powell et al. (Powell M. F. et al., Pharm. Res. 10, 1268-1273 (1993)). The reaction kinetics was followed by liquid chromatography and the percentage of remaining peptide was calculated by integrating the peptide peak area.

Substance | MIC [1] [µM] | MIC [2] [µM] | resistance to protease-mediated degradation [3]
H-ILGTILGLLKSL-NH2 [WT, ILGTILGLLKSL-NH2, reference compound] | 8.0 | 64.0 | –
H-ILGTILKLLKSL-NH2 [Peptide 16, ILGTILKLLKSL-NH2] | – | – | increased resistance to protease-mediated degradation
